Values quoted from earlier work as cited in patent US20160367500A1 (FERTILIFY INC., priority 2013, published 2016).
Where two headings read alike, the source gives them in different places.

Columns and labels:
[1] = test system: anti-Müllerian hormone (AMH); conditions: women with sufficient levels of vitamin D
[2] = test system: female rats
[3] = not given; remark: listed apart in the source
[4] = test system: mouse hepatocyte mitochondria
[5] = fortification of food with folic acid
[6] = test system: aged female mice
[7] = test system: ROS-mediated embryo-toxicity in cultures; conditions: vitamin C and vitamin E together, ex-vivo murine models
[8] = test system: methylglyoxal-treated oocytes
[9] = diet deficient in vitamin D versus vitamin D sufficient diet (Halloran 1980)

vitamin D
AMH levels [1]: increased levels of anti-Müllerian hormone (AMH) | pregnancy rate per IVF cycle (women whose vitamin D levels were insufficient or deficient): 34.7% | pregnancy rate per IVF cycle (women with sufficient levels of vitamin D): 52.5% | reduction of fertility [2, 9]: 75% | reduction of litter size [2, 9]: 30% | litter size ([2]; diet lacking vitamin D before mating versus diet containing vitamin D (Hickie 1983)): significantly smaller litters

O=C(O)c1cc(C(=O)O)c2c(n1)C(=O)C(=O)c1cc(C(=O)O)[nH]c1-2 [PQQ, pyrroloquinoline quinone]
upper limit (in words) ([3]; adults over the age of 18): (no known upper limit) | mitochondrial biogenesis ([4]; aging cells): promotes the spontaneous generation of new mitochondria within aging cells | protection from oxidative stress ([4]; mouse hepatocyte mitochondria): protects mouse hepatocyte mitochondria from oxidative stress

Nc1nc2ncc(CNc3ccc(C(=O)N[C@@H](CCC(=O)O)C(=O)O)cc3)nc2c(=O)[nH]1 [Folic Acid, folic acid]
rate of neural-tube defects [5]: significant reduction in the rate of neural-tube defects

COC1=C(OC)C(=O)C(C/C=C(\C)CC/C=C(\C)CC/C=C(\C)CC/C=C(\C)CC/C=C(\C)CC/C=C(\C)CC/C=C(\C)CC/C=C(\C)CC/C=C(\C)CCC=C(C)C)=C(C)C1=O [Coenzyme Q10, coenzyme Q10]
safely tolerable dose ([3]; in vivo): up to 1200 mg per day | litter size ([6]; 52-week-old mice, versus control groups without coenzyme Q10): significantly larger litter sizes | number of ovulated eggs after stimulation ([6]; aged female mice): significantly increases the number of ovulated eggs

vitamin E
tolerable upper limit of intake ([3]; Health Canada Nutrition Tables (2013)): 1000 mg per day | IVF [7]: improved IVF | rate of embryo development [7]: increased the rate of embryo development

Oc1ccc(C=Cc2cc(O)cc(O)c2)cc1 [Resveratrol, resveratrol]
adverse effects caused by methylglyoxal (inhibition of oocyte maturation, disruption of spindle assembly) [8]: can alleviate the adverse effects caused by methylglyoxal | excessive ROS production, aberrant mitochondrial distribution, high level lipid peroxidation ([8]; methylglyoxal-induced cytotoxic changes): can block these cytotoxic changes | DNA double strands breaks ([8]; methylglyoxal-treated oocytes): decreased
